In patent US20100280061A1, “NOVEL ANALGESIC THAT BINDS FILAMIN A” (priority 2009, published 2010):

Key:
mu opiate receptor (MOR) = target: T1, mu opiate receptor (MOR) (Rattus norvegicus, UniProt P33535); experiment: [35S]GTPγS binding assay using striatal membranes (MOR agonist activity); assay type: biochemical; parameters: MOR agonist activity, [35S]GTPγS binding to Gαo, 0.1 μM / MOR agonist activity, [35S]GTPγS binding to Gαo, 1 μM / MOR agonist activity, [35S]GTPγS binding to Gαo, 1 μM + BFNA: reference not given here; details: for MOR agonist activity, [35S]GTPγS binding to Gαo, 0.1 μM: 0.1 μM compound; for MOR agonist activity, [35S]GTPγS binding to Gαo, 0.1 μM / MOR agonist activity, [35S]GTPγS binding to Gαo, 1 μM: striatal membranes; for MOR agonist activity, [35S]GTPγS binding to Gαo, 1 μM + BFNA: 1 μM compound + 1 μM β-funaltrexamine; for MOR agonist activity, [35S]GTPγS binding to Gαo, 1 μM: 1 μM compound
T1 construct: from tissue; host or cells: striatal tissue (membrane preparation)
T1 sequence (P33535 whole entry): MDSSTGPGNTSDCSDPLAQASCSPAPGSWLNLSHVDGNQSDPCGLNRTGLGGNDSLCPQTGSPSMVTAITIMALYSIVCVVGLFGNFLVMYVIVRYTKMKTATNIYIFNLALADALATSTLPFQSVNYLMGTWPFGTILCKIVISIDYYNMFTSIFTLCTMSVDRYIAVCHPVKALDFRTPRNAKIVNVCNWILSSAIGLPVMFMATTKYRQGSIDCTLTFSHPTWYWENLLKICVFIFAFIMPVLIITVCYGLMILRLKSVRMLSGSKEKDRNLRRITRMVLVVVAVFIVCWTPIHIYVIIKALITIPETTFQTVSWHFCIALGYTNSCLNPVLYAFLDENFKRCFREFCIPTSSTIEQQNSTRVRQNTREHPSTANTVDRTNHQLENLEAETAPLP
Protocol: To assess the mu opiate receptor (MOR) agonist activity of positive compounds from the FLNA screening, compounds were tested in a [^35S]GTPγS binding assay using striatal membranes. Our previous study has shown that in striatal membranes, activation of MOR leads to an increase in [^35S]GTPγS binding to Gαo (Wang et al., 2005 Neuroscience 135:247-261).
Striatal tissue was homogenized in 10 volumes of ice cold 25 mM HEPES buffer, pH 7.4, which contained 1 mM EGTA, 100 mM sucrose, 50 μg/ml leupeptin, 0.04 mM PMSF, 2 μg/ml soybean trypsin inhibitor and 0.2% 2-mercaptoethanol. The homogenates were centrifuged at 800×g for 5 minutes and the supernatants were centrifuged at 49,000×g for 20 minutes. The resulting pellets were suspended in 10 volume of reaction buffer, which contained 25 mM HEPES, pH 7.5, 100 mM NaCl, 50 μg/ml leupeptin, 2 μg/ml soybean trypsin inhibitor, 0.04 mM PMSF and 0.02% […].
The resultant striatal membrane preparation (200 μg) was admixed and maintained (incubated) at 30° C. for 5 minutes in reaction buffer as above that additionally contained 1 mM MgCl2 and 0.5 nM [^35S]GTPγS (0.1 μCi/assay, PerkinElmer Life and Analytical Sciences) in a total volume of 250 μl and continued for 5 minutes in the absence or presence of 0.1-10 μM of an assayed compound of interest. The reaction was terminated by dilution with 750 μl of ice-cold reaction buffer that contained 20 mM MgCl2 and 1 mM EGTA and immediate centrifugation at 16,000×g for 5 minutes.
The resulting pellet was solubilized by sonicating for 10 seconds in 0.5 ml of immunoprecipitation buffer containing 0.5% digitonin, 0.2% sodium cholate and 0.5% NP-40. Normal rabbit serum (1 μl) was added to 1 ml of lysate and incubated at 25° C. for 30 minutes. Nonspecific immune complexes were removed by incubation with 25 μl of protein A/G-conjugated agarose beads at 25° C. for 30 minutes followed by centrifugation at 5,000×g at 4° C. for 5 minutes. The supernatant was divided and separately incubated at 25° C. for 30 minutes with antibodies raised against Gαo proteins (1:1,000 dilutions).
The immunocomplexes so formed were collected by incubation at 25° C. for 30 minutes with 40 μl of agarose-conjugated protein A/G beads and centrifugation at 5,000×g at 4° C. for 5 minutes. The pellet was washed and suspended in buffer containing 50 mM Tris-HCl, pH 8.0, and 1% NP-40. The radioactivity in the suspension was determined by liquid scintillation spectrometry. […] DAMGO (H-Tyr-D-Ala-Gly-N-MePhe-Gly-OH; 1 or 10 μM) was used as a positive control.

[1] = target: Bn-VAKGL pentapeptide of filamin A (FLNA) (Homo sapiens, UniProt P21333); experiment: FITC-NLX-based FLNA screening assay (FLNA peptide binding assay); details: 10 nM FITC-NLX
Protocol: The final assay volume is 100 μl.
Compounds are tested in triplicate or quadruplicate.

| SMILES | MOR agonist activity, [35S]GTPγS binding to Gαo, 0.1 μM (mu opiate receptor (MOR)) [%] | MOR agonist activity, [35S]GTPγS binding to Gαo, 1 μM + BFNA (mu opiate receptor (MOR)) [%] | MOR agonist activity, [35S]GTPγS binding to Gαo, 1 μM (mu opiate receptor (MOR)) [%] | Percent inhibition of FITC-NLX binding, 0.01 μM ([1]; 0.01 μM compound) [%] | Percent inhibition of FITC-NLX binding, 0.1 μM ([1]; 0.1 μM compound) [%] | Percent inhibition of FITC-NLX binding, 1 μM ([1]; 1 μM compound) [%] | inhibition at 0.01 µM ([1]; read-out: Percent inhibition of FITC-NLX binding, 0.01 μM compound) [%] | inhibition at 0.1 µM ([1]; read-out: Percent inhibition of FITC-NLX binding, 0.1 μM compound) [%] | inhibition at 1 µM ([1]; read-out: Percent inhibition of FITC-NLX binding, 1 μM compound) [%] | % DAMGO + BFNA (mu opiate receptor (MOR); 1 μM + BFNA, relative to DAMGO + BFNA) [%] |
| --- | --- | --- | --- | --- | --- | --- | --- | --- | --- | --- |
| COc1ccc(CC(=O)CC2c3c(cc4c(c3OC)OCO4)CC[N+]2(C)C)c(OC)c1 (stereo not shown) [B0029] | 171.9 | 17.6 | 210.3 | 33.4 | 42.9 | 50.2 |  |  |  |  |
| COc1c2c(cc3c1C(CC(=O)Cc1ccccc1C)N(C)CC3)OCO2 (stereo not shown) [B0053] | 160.2 | 134.3 | 299.8 |  |  |  |  |  |  |  |
| COc1c2c(cc3c1C(CC(O)Cc1ccccc1C)N(C)CC3)OCO2 (stereo not shown) [B0054] | 157.8 | 111.0 | 186.7 |  |  |  | 25.6 | 32.6 | 43.3 |  |
| COc1c2c(cc3c1C(CC(=O)c1cccc(C(F)(F)F)c1)[N+](C)(C)CC3)OCO2 (stereo not shown) [B0006] | 77.0 | 18.6 | 131.3 |  |  |  |  |  |  |  |
| COc1cccc(OC)c1C(=O)CC1c2c(cc3c(c2OC)OCO3)CC[N+]1(C)C.[I-] (stereo not shown) [B0023] | 166.1 | 28.4 | 245.3 | 28.5 | 37.8 | 46.4 |  |  |  |  |
| COc1cc(C(=O)CC2c3c(cc4c(c3OC)OCO4)CC[N+]2(C)C)cc(OC)c1OC (stereo not shown) [B0037] | 119.8 | 106.2 | 186.0 | 47.4 | 53.0 | 52.4 |  |  |  |  |
| COc1c2c(cc3c1C(CC(=O)c1ccc(C#N)cc1)[N+](C)(C)CC3)OCO2 (stereo not shown) [B0001] | 128.2 | 28.0 | 202.3 |  |  |  |  |  |  |  |
| COc1c2c(cc3c1C(CC(=O)CCc1ccc(F)cc1)[N+](C)(C)CC3)OCO2 (stereo not shown) [B0018] | 118.8 | 45.6 | 143.0 | 37.2 | 43.7 | 47.6 |  |  |  |  |
| COc1c2c(cc3c1C(CC(=O)Cc1ccccc1C)[N+](C)(C)CC3)OCO2 (stereo not shown) [B0031] | 210.8 | 28.8 | 272.0 | 36.2 | 44.2 | 50.5 |  |  |  |  |
| COc1ccc(CCCCC2c3c(cc4c(c3OC)OCO4)CC[N+]2(C)C)cc1 (stereo not shown) [B0056] | 174.7 | 41.8 | 288.8 |  |  |  |  |  |  |  |
| COCOc1ccc(C(=O)CC2c3c(cc4c(c3OC)OCO4)CC[N+]2(C)C)cc1C.[I-] (stereo not shown) [B0041] | 61.6 | 41.9 | 109.3 | 44.0 | 46.8 | 52.8 |  |  |  |  |
| COc1c2c(cc3c1C(CC(=O)CCc1ccc(O)cc1)[N+](C)(C)CC3)OCO2.[I-] (stereo not shown) [B0028] | 199.1 | 55.0 | 357.7 | 38.2 | 42.8 | 49.1 |  |  |  |  |
| COc1cc(F)ccc1C(=O)CC1c2c(cc3c(c2OC)OCO3)CC[N+]1(C)C (stereo not shown) [B0007] | 168.3 | 64.5 | 223.3 |  |  |  |  |  |  |  |
| CCOc1ccc(C(=O)CC2c3c(cc4c(c3OC)OCO4)CC[N+]2(C)C)cc1F (stereo not shown) [B0020] | 51.6 | 24.9 | 181.6 | 38.1 | 45.5 | 50.6 |  |  |  |  |
| COc1c2c(cc3c1C(CC(=O)Cc1ccc(C#N)cc1)[N+](C)(C)CC3)OCO2 (stereo not shown) [B0012] | 167.4 | 145.1 | 212.0 | 39.4 | 46.9 | 51.7 |  |  |  |  |
| COc1ccc(CCC(=O)CC2c3c(cc4c(c3OC)OCO4)CC[N+]2(C)C)cc1 (stereo not shown) [B0016] | 167.7 | 72.2 | 213.6 |  |  |  |  |  |  |  |
| COc1c2c(cc3c1C(CC(=O)c1ccc(N4CCOCC4)cc1)[N+](C)(C)CC3)OCO2 (stereo not shown) [B0004] | 170.3 | 72.0 | 231.7 |  |  |  |  |  |  | 110.0 |
| COc1c2c(cc3c1C(CC(=O)Cc1ccccc1F)[N+](C)(C)CC3)OCO2.[I-] (stereo not shown) [B0055] | 162.1 | 117.5 | 338.5 |  |  |  |  |  |  |  |
| COc1ccc(CCC(=O)CC2c3c(cc4c(c3OC)OCO4)CCN2C)cc1 (stereo not shown) [B0047] | 187.8 | 68.4 | 235.6 |  |  |  |  |  |  |  |
